Source: US7745450B2, “Pyrazolo[4,3-d]pyrimidines, processes for their preparation and methods for therapy” (Institute of Experimental Botany, priority 2002, dated 2010)
Read-outs that look alike come from different tables or passages of the source.

Experiments:
[1] = test system: Cytokinin-dependent tobacco callus Nicotiana tabacum L. cv. Wisconsins 38; assay: Tobacco callus bioassay for cytotoxicity (herbicidal activity); assay type: cell-based; conditions: Nicotiana tabacum, 672 h
Description: The novel compounds have also been tested in tobacco callus bioassay for cytotoxicity (herbicidal activity) and induction of cell death. The compounds to be tested were dissolved in dimethylsulfoxide (DMSO) and the solution brought up to 10^−3 M with distilled water. […] Cytokinin-dependent tobacco callus Nicotiana tabacum L. cv. Wisconsins 38 Murashige-Skoog medium, containing per 1 liter: 4 μmol nicotinic acid, 2.4 μmol pyridoxine hydrochloride, 1.2 μmol thiamine, 26.6 μmol glycine, 1.37 μmol glutamine, 1.8 μmol myo.inositol, 30 g of sucrose, 8 g of agar, […] α-naphthylacetic acid and 0.5 μmol 6-benzylaminopurine. Sub cultivation was carried out every three weeks. Fourteen days before the bioassay, the callus tissue was transferred to the media without 6-benzylaminopurine. Compounds were tested with two different concentrations of 6-benzylaminopurine (10^−5 M and 10^−6 M). Inhibitory growth activity was determined from the increase in fresh callus weight after four weeks of cultivation. Five replicates were prepared for each concentration tested and the entire test was repeated at least twice.

IκB-α kinase = IκB-α kinase inhibition, in vitro kinase assay; assay type: biochemical
cdk1/cyclin B (CDC2) = cdk1/cyclin B (CDC2) (Homo sapiens, UniProt P06493); assay: CDK inhibition assay, cdk1/cyclin B (CDC2) kinase, histone phosphorylation; assay type: biochemical
Description: Selected compounds were tested for cdk1/cyclin B and cdk2/cyclin E inhibitory activity to determine the basic relationships between their interaction energy of docked complex and the inhibitory activity. Cdk2/cyclin E complex was produced in SIP insect cells co-infected with appropriate baculoviral construct. The cells were harvested 70 hours post infection in lysis buffer (50 mM Tris 7.4 pH, 150 mM NaCl, 5 mM EDTA, 20 mM NaF, 1% Tween 20, protease inhibitors) for 30 min on ice and the soluble fraction was recovered by centrifugation at 14.000 g for 10 min. The protein extract was stored at −80° C. until use. The final point test system for kinase activity measurement was used to carry out experiments on the kinetics under linear conditions. The assay mixture contained 1 mg/ml histone (Sigma Type III-S), 15 μM ATP, 0.2 μCi [γ-^32P] ATP and tested compound in a final volume of 20 μl, all in reaction buffer: 50 mM Hepes 7.4 pH, 10 mM MgCl2, 5 mM EGTA, 10 mM 2-glycerolphosphate, 1 mM NaF, 1 mM DTT and protease inhibitors. […] The measurement of kinase inhibition employed the digital imaging analyzer BAS 1800. The kinase activity was expressed as a percentage of maximum activity and the IC50 value was determined by graphic analysis. The kinase activity is expressed as a percentage of maximum activity, the apparent inhibition constants are determined by graphic analysis from dose-response curves presented on FIG. 1.

[2] = read-out: 10^−5 M BAP IC50, 10^−5 M 6-benzylaminopurine, four weeks
[3] = read-out: 10^−6 M BAP IC50, 10^−6 M 6-benzylaminopurine, four weeks

Chain of cdk1/cyclin B (CDC2) (P06493 whole entry, species assumed): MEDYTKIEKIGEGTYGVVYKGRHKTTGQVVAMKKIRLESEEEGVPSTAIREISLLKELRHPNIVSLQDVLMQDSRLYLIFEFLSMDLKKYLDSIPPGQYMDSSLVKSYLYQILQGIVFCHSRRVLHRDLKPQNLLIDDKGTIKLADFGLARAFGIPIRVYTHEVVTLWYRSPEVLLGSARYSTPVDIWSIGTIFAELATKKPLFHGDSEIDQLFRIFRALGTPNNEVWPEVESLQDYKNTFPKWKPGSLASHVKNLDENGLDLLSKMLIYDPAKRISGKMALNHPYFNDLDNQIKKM
Chain of cdk1/cyclin B (CDC2) (P14635 whole entry partner, species assumed): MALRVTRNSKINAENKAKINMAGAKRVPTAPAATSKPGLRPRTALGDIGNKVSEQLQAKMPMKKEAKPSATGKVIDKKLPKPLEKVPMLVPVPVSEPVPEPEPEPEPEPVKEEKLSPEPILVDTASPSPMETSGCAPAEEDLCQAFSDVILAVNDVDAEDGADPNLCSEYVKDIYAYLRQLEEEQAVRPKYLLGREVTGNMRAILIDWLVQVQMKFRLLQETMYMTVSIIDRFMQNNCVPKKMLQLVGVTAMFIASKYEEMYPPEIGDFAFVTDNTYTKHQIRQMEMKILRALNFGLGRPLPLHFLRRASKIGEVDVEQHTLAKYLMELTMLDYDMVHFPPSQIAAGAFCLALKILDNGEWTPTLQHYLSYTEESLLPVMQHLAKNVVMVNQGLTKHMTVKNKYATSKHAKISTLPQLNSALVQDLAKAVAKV

Structure (SMILES)	IC50 [1, 2] [µM]	IC50 [1, 3] [µM]	IC50 (IκB-α kinase) [nM]	IC50 (cdk1/cyclin B (CDC2)) [nM]
CC(C)c1n[nH]c2c(Nc3cccc(Cl)c3)nc(NC3CCCCC3N)nc12 (stereo not drawn)	> 50	28	12	4
Cc1n[nH]c2c(NCc3ccccc3)nc(NC3CCCCC3N)nc12 (stereo not drawn)	> 50	48	90	30
CC(C)c1n[nH]c2c(Nc3cccc(Cl)c3)nc(NCCN)nc12	> 50	48	250	140
Cc1n[nH]c2c(NCc3c(N)cccc3Cl)nc(NCCO)nc12			80	40
Cc1n[nH]c2c(NCc3ccc(Cl)c(N)c3N)nc(NCCO)nc12			700	600
Cc1n[nH]c2c(NCc3ccc(Cl)c(O)c3O)nc(NCCO)nc12			21	9
COc1cc(O)c(CNc2nc(NCCO)nc3c(C)n[nH]c23)c(O)c1			9	4
Cc1n[nH]c2c(NCc3ccc(Cl)c(N)c3)nc(NCCO)nc12			800	200
Cc1n[nH]c2c(N(C)Cc3ccc(O)c(O)c3)nc(NCCO)nc12			900	700
CC(C)c1n[nH]c2c(NCc3ccccc3)nc(NCCO)nc12			2300	1000
CC(C)c1n[nH]c2c(Nc3cccc(Cl)c3)nc(NCCCN)nc12	> 50	45	80	20
Cc1n[nH]c2c(NCc3ccccc3)nc(NCCCO)nc12			1800	700
CC(C)c1n[nH]c2c(Nc3cccc(Cl)c3)nc(NC3CCC(N)CC3)nc12 (stereo not drawn)	> 50	25	12	1
Cc1n[nH]c2c(NCc3ccccc3)nc(NC3CCC(N)CC3)nc12 (stereo not drawn)	> 50	43	50	20
CC(C)c1n[nH]c2c(NCc3ccccc3)nc(N(CCO)CCO)nc12			1100	400
Cc1n[nH]c2c(NCc3ccccc3)nc(N(CCO)CCO)nc12			2100	900
CC(=O)Oc1ccccc1CNc1nc(N[C@@H](CO)C(C)C)nc2c(C(C)C)n[nH]c12	38	4.2	12	6
CC(C)c1n[nH]c2c(NCc3c(N)cccc3Cl)nc(N[C@@H](CO)C(C)C)nc12	38	3.7	2	0.9
CC(C)c1n[nH]c2c(NCc3cccc(Cl)c3O)nc(N[C@@H](CO)C(C)C)nc12	> 50	9.4	4	2
COc1cccc(CNc2nc(N[C@@H](CO)C(C)C)nc3c(C(C)C)n[nH]c23)c1O	> 50	21.6	15	6
Cc1cccc(CNc2nc(N[C@@H](CO)C(C)C)nc3c(C(C)C)n[nH]c23)c1O	> 50	10.7	2	1
CC(=O)Oc1cccc(CNc2nc(N[C@@H](CO)C(C)C)nc3c(C(C)C)n[nH]c23)c1	36	8.5	60	20
CC(C)c1n[nH]c2c(Nc3ccc(Cl)c(N)c3)nc(N[C@@H](CO)C(C)C)nc12	25	1.8	2	1
CC(C)c1n[nH]c2c(NCc3ccc(Cl)c(N)c3)nc(N[C@@H](CO)C(C)C)nc12	> 50	19.4	3	2
CC(C)c1n[nH]c2c(Nc3ccc(O)c(C(=O)O)c3)nc(N[C@@H](CO)C(C)C)nc12	18	1.2	1	0.4
CC(C)c1n[nH]c2c(Nc3ccc(Cl)c(C(=O)O)c3)nc(N[C@@H](CO)C(C)C)nc12	> 50	9.6	2	1
